“And” between values parts separate entries of the source, which are not always exact repeats. Identical values can stand only once.
Columns and labels:
PP2A [1] = assay: PP2A activity in mouse brains after IP dosing (PP2A immunoprecipitation phosphatase assay, malachite green); type: in vivo, Balb/c mice; set-up: Average Conc. (group of 3 mice): unit not given here; conditions: brain
Description: (§1) Coomassie (Bradford) Protein Assay Kit (Pierce); PP2A Immunoprecipitation Phosphatase Assay Kit (Millipore); Lysate preparation for low endogenous phosphate: 20 mM imidazole-HCl, 2 mM EDTA, 2 mM EGTA, 1 mM PMSF, 1 mM benzamidine, 10 ug/ml each of aprotinin, leupeptin, antipain, soybean trypsin inhibitor; Normal Mouse IgG (Millipore); Okadaic acid (OA) (Tocris); DMSO (Sigma).
(§2) • Species: Mus Musculus • Strain: Balb/c mice • Age: 6-8 weeks • Sex: female • Body weight: 18-22 g • Vendor: Shanghai Laboratory Animal Center, Shanghai, China; • Number of animals: 66 Balb/c mice plus spare
(§3) The mice were kept in laminar flow rooms at constant temperature and humidity with 4 animals in each cage. • Temperature: 20-25 • Humidity: 40-70%. • Light cycle: 12 hours light and 12 hours dark. • Cages: Made of polycarbonate. The size is 29 cm×17.5 cm×12 cm (L×w×H). The bedding material is wood debris, which is changed once per week. • Diet: Animals had free access to irradiation sterilized dry granule food during the entire study period. • Water: Animals had free access to sterile drinking water. • Cage identification: the identification labels for each cage contained the following information: number of animals, sex, strain, date arrival, treatment, study number, group number, and the starting date of the treatment. • Animal identification: Animals were marked by ear punch.
(§4) All the procedures related to animal handling, care, and the treatment in this study were performed according to guidelines approved by the Institutional Animal Care and Use Committee (IACUC) of WuXi AppTec (Shanghai), following the guidance of the Association for Assessment and Accreditation of Laboratory Animal Care (AAALAC). At the time of routine monitoring, the animals were checked and recorded for any effects of tumor growth on normal behavior such as mobility, food and water consumption (by looking only), body weight gain/loss, eye/hair matting and any other abnormal effect.
(§5) 1. Proper amount of the compounds were weighed. 2. The compounds were dissolved in 4% sterile sodium bicarbonate. 3. All of the compounds should be well dissolved and clear. 4. The compounds should be kept cold once in solution and injected within an hour. 5. The mice were administered intraperitoneally according to their body weights, 20 g mouse was treated with 0.2 ml compound solution. 6. Mice were treated with vehicle and compounds according to Table 1. 7. 3 hours after the dose, 3 mice from each group were euthanized by
(§6) CO2 exposure, and the brains and left lobe of livers were taken and snap-frozen in liquid nitrogen immediately. 6 hours after the dose, the other 3 mice from each group were euthanized by CO2 exposure, and the brains and left lobe of livers were taken and snap-frozen in liquid nitrogen immediately.
(§7) Preparation of malachite green phosphate detection solution Added […] of Solution B to each 1 mL of Solution A, kept at room temperature during use. […] of mixed solution AB is used per assay well.
(§8) Diluted 125 mL Phosphate Standard (Solution C) with 1125 mL of distilled water to make 0.1 mM working solution. The solution was used to prepare a phosphate standard curve as described in the table below.
(§9) 1. 25 μL of each phosphate standards was transferred to wells of microliter plate. 2. Added 100 μL of Malachite Green Solution AB. Mixed carefully without creating bubbles. 3. Cultured for 15 minutes at RT. 4. Measured absorbance at a wavelength between 650 nm in a microliter plate reader.
(§10) 1. Dissolved 1 mg Threonine Phosphopeptide (Catalog #12-219) in 1.10 mL of distilled water to prepare a 1 mM solution. 2. Aliquot peptide solution and stored at ˜20° C. as necessary.
(§11) 1. Mouse brain or liver was homogenized using lysis buffer (25 g/L), centrifuged at 12000 g for 10 minutes at […], and the supernatants were collected. 2. The protein was quantitated, and 240 μg of mouse brain or liver lysate was taken to assay phosphatase activity. 3. […]

PP2A [2] = assay: PP2A activity in mouse livers after IP dosing (PP2A immunoprecipitation phosphatase assay, malachite green); type: in vivo, Balb/c mice; conditions: liver
Description: as §1, §2, §3, §4, §5, §6, §7, §8, §9, §10, §11

[3] = high dose IP (mpk: 100 1.5, 113 2.2, 151 1.6, 153 1.7, 157 2.0), 3 h
[4] = high dose IP (mpk: 100 1.5, 113 2.2, 151 1.6, 153 1.7, 157 2.0), 6 h
[5] = low dose IP (mpk: 100 0.75, 113 1.1, 151 0.8, 153 0.85, 157 1.0), 3 h
[6] = low dose IP (mpk: 100 0.75, 113 1.1, 151 0.8, 153 0.85, 157 1.0), 6 h
[7] = high dose IP (mpk: 100 1.5, 113 2.2, 151 1.6, 157 2.0), 3 h
[8] = high dose IP (mpk: 100 1.5, 113 2.2, 151 1.6, 157 2.0), 6 h

SMILES: COC(=O)C1C2CCC(O2)C1C(=O)N1CCN(C)CC1 (centres unmarked) [Compound 151]
- Average Conc. (group of 3 mice) (PP2A [1]; [3]): 2166.08
- Average Relative Activity (group, vehicle = 100) (PP2A [1]; [3]): 87.89
- Conc. (phosphate, single reading, per mouse) (PP2A [1]; [3]): 3168.39 and 2285.85 and 2334.84 and 1781.17 and 1662.47 and 1991.94
- Mean Conc. (per mouse) (PP2A [1]; [3]): 2310.34 and 1721.82 and 2580.16
- Mean Conc. less IgG blank (per mouse) (PP2A [1]; [3]): 2272.32 and 1683.79 and 2542.14
- Relative Conc. (per mouse, to vehicle) (PP2A [1]; [3]): 1.05 and 0.78 and 1.17
- Relative PP2A Activity (per mouse, vehicle = 100) (PP2A [1]; [3]): 92.20 and 68.32 and 103.14
- Average Conc. (group of 3 mice) (PP2A [1]; [4]): 2082.71
- Average Relative Activity (group, vehicle = 100) (PP2A [1]; [4]): 74.99
- Conc. (phosphate, single reading, per mouse) (PP2A [1]; [4]): 1999.47 and 1945.40 and 1958.41 and 2142.56 and 2296.42 and 2382.19
- Mean Conc. (per mouse) (PP2A [1]; [4]): 1972.43 and 2050.48 and 2339.31
- Mean Conc. less IgG blank (per mouse) (PP2A [1]; [4]): 1934.40 and 2012.45 and 2301.28
- Relative Conc. (per mouse, to vehicle) (PP2A [1]; [4]): 0.79 and 0.82 and 0.94
- Relative PP2A Activity (per mouse, vehicle = 100) (PP2A [1]; [4]): 69.65 and 72.46 and 82.86
- Average Conc. (group of 3 mice) (PP2A [1]; [5]): 1599.57
- Average Relative Activity (group, vehicle = 100) (PP2A [1]; [5]): 64.90
- Conc. (phosphate, single reading, per mouse) (PP2A [1]; [5]): 1332.79 and 1495.39 and 2603.34 and 1925.68 and 1273.84 and 1194.57
- Mean Conc. (per mouse) (PP2A [1]; [5]): 1414.09 and 2264.51 and 1234.21
- Mean Conc. less IgG blank (per mouse) (PP2A [1]; [5]): 1376.06 and 2226.48 and 1196.18
- Relative Conc. (per mouse, to vehicle) (PP2A [1]; [5]): 0.63 and 1.03 and 0.55
- Relative PP2A Activity (per mouse, vehicle = 100) (PP2A [1]; [5]): 55.83 and 90.34 and 48.53
- Average Conc. (group of 3 mice) (PP2A [1]; [6]): 1662.31
- Average Relative Activity (group, vehicle = 100) (PP2A [1]; [6]): 59.85
- Conc. (phosphate, single reading, per mouse) (PP2A [1]; [6]): 1514.30 and 1280.55 and 1980.77 and 1880.56 and 1846.62 and 1699.26
- Mean Conc. (per mouse) (PP2A [1]; [6]): 1397.42 and 1930.66 and 1772.94
- Mean Conc. less IgG blank (per mouse) (PP2A [1]; [6]): 1359.40 and 1892.63 and 1734.91
- Relative Conc. (per mouse, to vehicle) (PP2A [1]; [6]): 0.56 and 0.77 and 0.71
- Relative PP2A Activity (per mouse, vehicle = 100) (PP2A [1]; [6]): 48.95 and 68.15 and 62.47
- Average Conc. (group of 3 mice) (PP2A [2]; [7]): 472.47
- Average Relative Activity (group, vehicle = 100) (PP2A [2]; [7]): 112.5
- Conc. (phosphate, single reading, per mouse) (PP2A [2]; [7]): 387.96 and 418.01 and 367.5 and 404.51 and 757.23 and 772.47
- Mean Conc. (per mouse) (PP2A [2]; [7]): 402.99 and 386.01 and 764.85
- Mean Conc. less IgG blank (per mouse) (PP2A [2]; [7]): 357.51 and 340.53 and 719.38
- Relative Conc. (per mouse, to vehicle) (PP2A [2]; [7]): 0.85 and 0.81 and 1.71
- Relative PP2A Activity (per mouse, vehicle = 100) (PP2A [2]; [7]): 85.13 and 81.08 and 171.29
- Average Conc. (group of 3 mice) (PP2A [2]; [8]): 241.1
- Average Relative Activity (group, vehicle = 100) (PP2A [2]; [8]): 54.24
- Conc. (phosphate, single reading, per mouse) (PP2A [2]; [8]): 320.03 and 325.26 and 287.37 and 311.32 and 231.2 and 244.26
- Mean Conc. (per mouse) (PP2A [2]; [8]): 322.65 and 299.35 and 237.73
- Mean Conc. less IgG blank (per mouse) (PP2A [2]; [8]): 277.17 and 253.87 and 192.25
- Relative Conc. (per mouse, to vehicle) (PP2A [2]; [8]): 0.62 and 0.57 and 0.43
- Relative PP2A Activity (per mouse, vehicle = 100) (PP2A [2]; [8]): 62.36 and 57.11 and 43.25
- Average Conc. (group of 3 mice) (PP2A [2]; [5]): 423.92
- Average Relative Activity (group, vehicle = 100) (PP2A [2]; [5]): 100.94
- Conc. (phosphate, single reading, per mouse) (PP2A [2]; [5]): 430.64 and 449.36 and 437.61 and 446.75 and 521.21 and 530.8
- Mean Conc. (per mouse) (PP2A [2]; [5]): 440 and 442.18 and 526
- Mean Conc. less IgG blank (per mouse) (PP2A [2]; [5]): 394.52 and 396.7 and 480.53
- Relative Conc. (per mouse, to vehicle) (PP2A [2]; [5]): 0.94 (2×) and 1.14
- Relative PP2A Activity (per mouse, vehicle = 100) (PP2A [2]; [5]): 93.94 and 94.46 and 114.42
- Average Conc. (group of 3 mice) (PP2A [2]; [6]): 307.58
- Average Relative Activity (group, vehicle = 100) (PP2A [2]; [6]): 69.2
- Conc. (phosphate, single reading, per mouse) (PP2A [2]; [6]): 260.81 and 279.97 and 333.1 and 357.92 and 428.03 and 458.51
- Mean Conc. (per mouse) (PP2A [2]; [6]): 270.39 and 345.51 and 443.27
- Mean Conc. less IgG blank (per mouse) (PP2A [2]; [6]): 224.91 and 300.03 and 397.79
- Relative Conc. (per mouse, to vehicle) (PP2A [2]; [6]): 0.51 and 0.67 and 0.89
- Relative PP2A Activity (per mouse, vehicle = 100) (PP2A [2]; [6]): 50.6 and 67.5 and 89.49

— patent publication US20160264593A1 (priority 2013, published 2016)
